# From PubChem BioAssay (NCI)
#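 Following 48 hours of exposure in 96-well plates, responses at five concentrations were used to interpolate endpoints linearly. TGI: concentration producing complete growth inhibition.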
# Assays:
# Assay in all cases: NCI-60 cell line screen, 48 h
# A498 renal = system: A498 renal
# A549 NSCLC = system: A549 NSCLC
# ACHN renal = system: ACHN renal
# CAKI-1 renal = system: CAKI-1 renal
# CCRF-CEM leukemia = system: CCRF-CEM leukemia
# DLD-1 colon = system: DLD-1 colon
# DMS 114 small cell lung = system: DMS 114 small cell lung
# DMS 273 small cell lung = system: DMS 273 small cell lung
# HCC-2998 colon = system: HCC-2998 colon
# HCT-15 colon = system: HCT-15 colon
# HL-60(TB) leukemia = system: HL-60(TB) leukemia
# HOP-62 NSCLC = system: HOP-62 NSCLC
# HT29 colon = system: HT29 colon
# K-562 leukemia = system: K-562 leukemia
# KM12 colon = system: KM12 colon
# LOX IMVI melanoma = system: LOX IMVI melanoma
# LXFL 529 NSCLC = system: LXFL 529 NSCLC
# M14 melanoma = system: M14 melanoma
# M19-MEL melanoma = system: M19-MEL melanoma
# MALME-3M melanoma = system: MALME-3M melanoma
# MOLT-4 leukemia = system: MOLT-4 leukemia
# NCI-H23 lung = system: NCI-H23 lung
# NCI-H460 lung = system: NCI-H460 lung
# NCI-H522 lung = system: NCI-H522 lung
# OVCAR-3 ovarian = system: OVCAR-3 ovarian
# OVCAR-4 ovarian = system: OVCAR-4 ovarian
# RPMI-8226 leukemia = system: RPMI-8226 leukemia
# RXF 393 renal = system: RXF 393 renal
# SF-268 CNS = system: SF-268 CNS
# SF-295 CNS = system: SF-295 CNS
# SF-539 CNS = system: SF-539 CNS
# SK-MEL-2 melanoma = system: SK-MEL-2 melanoma
# SK-MEL-28 melanoma = system: SK-MEL-28 melanoma
# SK-MEL-5 melanoma = system: SK-MEL-5 melanoma
# SK-OV-3 ovarian = system: SK-OV-3 ovarian
# SN12C renal = system: SN12C renal
# SNB-19 CNS = system: SNB-19 CNS
# SNB-75 CNS = system: SNB-75 CNS
# SR leukemia = system: SR leukemia
# SW-620 colon = system: SW-620 colon
# U251 CNS = system: U251 CNS
# UACC-257 melanoma = system: UACC-257 melanoma
# UACC-62 melanoma = system: UACC-62 melanoma
# UO-31 renal = system: UO-31 renal
# 786-0 renal = system: 786-0 renal
# COLO 205 colon = system: COLO 205 colon
# HCT-116 colon = system: HCT-116 colon
# HOP-18 NSCLC = system: HOP-18 NSCLC
# HOP-92 NSCLC = system: HOP-92 NSCLC
# IGROV1 ovarian = system: IGROV1 ovarian
# NCI-H226 lung = system: NCI-H226 lung
# OVCAR-5 ovarian = system: OVCAR-5 ovarian
# OVCAR-8 ovarian = system: OVCAR-8 ovarian
# TK-10 renal = system: TK-10 renal
structure (smiles),measurement,setting,value
CC(=O)Oc1c2c(c(OC(C)=O)c3c1n(C(C)=O)c1ccccc1n3C(C)=O)n(C(C)=O)c1ccccc1n2C(C)=O,TGI,A498 renal,39 µM
same,TGI,A549 NSCLC,24.2 µM
same,TGI,ACHN renal,25.4 µM
same,TGI,CAKI-1 renal,55.1 µM
same,TGI,CCRF-CEM leukemia,15.6 µM
same,TGI,DLD-1 colon,11.8 µM
same,TGI,DMS 114 small cell lung,7.96 µM
same,TGI,DMS 273 small cell lung,10.6 µM
same,TGI,HCC-2998 colon,18.9 µM
same,TGI,HCT-15 colon,13 µM
same,TGI,HL-60(TB) leukemia,6.1 µM
same,TGI,HOP-62 NSCLC,53.5 µM
same,TGI,HT29 colon,13 µM
same,TGI,K-562 leukemia,> 100 µM
same,TGI,KM12 colon,31.5 µM
same,TGI,LOX IMVI melanoma,24.6 µM
same,TGI,LXFL 529 NSCLC,16.5 µM
same,TGI,M14 melanoma,20.7 µM
same,TGI,M19-MEL melanoma,14.4 µM
same,TGI,MALME-3M melanoma,7.56 µM
same,TGI,MOLT-4 leukemia,8.7 µM
same,TGI,NCI-H23 lung,25.7 µM
same,TGI,NCI-H460 lung,15.4 µM
same,TGI,NCI-H522 lung,5.97 µM
same,TGI,OVCAR-3 ovarian,5.68 µM
same,TGI,OVCAR-4 ovarian,40.5 µM
same,TGI,RPMI-8226 leukemia,10.8 µM
same,TGI,RXF 393 renal,26.8 µM
same,TGI,SF-268 CNS,24.9 µM
same,TGI,SF-295 CNS,28.9 µM
same,TGI,SF-539 CNS,30.8 µM
same,TGI,SK-MEL-2 melanoma,24 µM
same,TGI,SK-MEL-28 melanoma,16.8 µM
same,TGI,SK-MEL-5 melanoma,39 µM
same,TGI,SK-OV-3 ovarian,50 µM
same,TGI,SN12C renal,19.3 µM
same,TGI,SNB-19 CNS,53.8 µM
same,TGI,SNB-75 CNS,46.1 µM
same,TGI,SR leukemia,7.69 µM
same,TGI,SW-620 colon,5.67 µM
same,TGI,U251 CNS,29.5 µM
same,TGI,UACC-257 melanoma,13 µM
same,TGI,UACC-62 melanoma,37 µM
same,TGI,UO-31 renal,25.2 µM
COc1ccc(C2S/C(=C\c3cccc(OC)c3)C(=O)N2NC(=O)Cc2ccccc2)cc1 (centres undefined),TGI,786-0 renal,> 100 µM
same,TGI,A498 renal,> 100 µM
same,TGI,A549 NSCLC,> 100 µM
same,TGI,ACHN renal,> 100 µM
same,TGI,CAKI-1 renal,> 100 µM
same,TGI,CCRF-CEM leukemia,> 100 µM
same,TGI,COLO 205 colon,> 100 µM
same,TGI,DLD-1 colon,> 100 µM
same,TGI,DMS 273 small cell lung,> 100 µM
same,TGI,HCT-116 colon,> 100 µM
same,TGI,HCT-15 colon,> 100 µM
same,TGI,HL-60(TB) leukemia,> 100 µM
same,TGI,HOP-18 NSCLC,> 100 µM
same,TGI,HOP-62 NSCLC,> 100 µM
same,TGI,HOP-92 NSCLC,> 100 µM
same,TGI,HT29 colon,> 100 µM
same,TGI,IGROV1 ovarian,> 100 µM
same,TGI,K-562 leukemia,> 100 µM
same,TGI,KM12 colon,> 100 µM
same,TGI,LOX IMVI melanoma,> 100 µM
same,TGI,LXFL 529 NSCLC,> 100 µM
same,TGI,M14 melanoma,> 100 µM
same,TGI,M19-MEL melanoma,> 100 µM
same,TGI,MALME-3M melanoma,> 100 µM
same,TGI,MOLT-4 leukemia,> 100 µM
same,TGI,NCI-H226 lung,> 100 µM
same,TGI,NCI-H23 lung,> 100 µM
same,TGI,NCI-H460 lung,> 100 µM
same,TGI,NCI-H522 lung,> 100 µM
same,TGI,OVCAR-4 ovarian,> 100 µM
same,TGI,OVCAR-5 ovarian,> 100 µM
same,TGI,OVCAR-8 ovarian,> 100 µM
same,TGI,RPMI-8226 leukemia,> 100 µM
same,TGI,RXF 393 renal,> 100 µM
same,TGI,SF-268 CNS,> 100 µM
same,TGI,SF-295 CNS,> 100 µM
same,TGI,SF-539 CNS,> 100 µM
same,TGI,SK-MEL-2 melanoma,> 100 µM
same,TGI,SK-MEL-28 melanoma,> 100 µM
same,TGI,SK-MEL-5 melanoma,> 100 µM
same,TGI,SK-OV-3 ovarian,> 100 µM
same,TGI,SN12C renal,> 100 µM
same,TGI,SNB-75 CNS,> 100 µM
same,TGI,SR leukemia,> 100 µM
same,TGI,SW-620 colon,> 100 µM
same,TGI,TK-10 renal,> 100 µM
same,TGI,U251 CNS,> 100 µM
same,TGI,UACC-257 melanoma,> 100 µM
same,TGI,UACC-62 melanoma,> 100 µM
same,TGI,UO-31 renal,> 100 µM
